US20230407243A1, “GENETIC PLATFORM TO INVESTIGATE THE FUNCTIONS OF BACTERIAL DRUG EFFLUX PUMPS” (priority 2022, published 2023)
Like-named read-outs stand apart in the source and are kept apart here.

How the values were obtained:
Assay type in all cases: cell-based, Escherichia coli
E. coli EKO-35 = experiment: microbe, parasite or virus in culture; details: for Fold change of MICs: EKO-35 compared to EKO-35 (reference); for MIC: Escherichia coli, EKO35
Outline: (§1)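 Growth inhibition was scored by OD600, with readings taken before incubation subtracted from those after. Cells were grown in MHB II at 37 °C for 18 h with aeration, against duplicate 2-fold compound series and DMSO-only wells. Inoculum: PBS suspension at OD600 ~1.0 diluted 1/2000.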

E. coli ΔtolC = experiment: microbe, parasite or virus in culture; details: for Minimum inhibitory concentration (MIC), ΔtolC: Table 10, without pore
Outline: as §1

[1] = test system: wild-type E. coli K-12 str. BW25113; experiment: microbe, parasite or virus in culture; details: technical duplicate; for MIC: Escherichia coli, BW25113
Outline: as §1

EKO-35 araC::acrBD408A = experiment: MIC susceptibility profiling, efflux platform; details: for Fold change of MICs: EKO-35 araC::acrBD408A compared to EKO-35
Outline: as §1

EKO-35 araC::acrB = experiment: MIC susceptibility profiling, efflux platform; details: for Fold change of MICs: EKO-35 araC::acrB compared to EKO-35
Outline: as §1

EKO-35 araC::acrD = experiment: MIC susceptibility profiling, efflux platform; details: for Fold change of MICs: EKO-35 araC::acrD compared to EKO-35
Outline: as §1

EKO-35 araC::acrEF = experiment: MIC susceptibility profiling, efflux platform; details: for Fold change of MICs: EKO-35 araC::acrEF compared to EKO-35
Outline: as §1

EKO-35 araC::emrAB = experiment: MIC susceptibility profiling, efflux platform; details: for Fold change of MICs: EKO-35 araC::emrAB compared to EKO-35
Outline: as §1

EKO-35 araC::emrKY = experiment: MIC susceptibility profiling, efflux platform; details: for Fold change of MICs: EKO-35 araC::emrKY compared to EKO-35
Outline: as §1

EKO-35 araC::macAB = experiment: MIC susceptibility profiling, efflux platform; details: for Fold change of MICs: EKO-35 araC::macAB compared to EKO-35
Outline: as §1

EKO-35 araC::mdtBC = experiment: MIC susceptibility profiling, efflux platform; details: for Fold change of MICs: EKO-35 araC::mdtBC compared to EKO-35
Outline: as §1

EKO-35 araC::mdtEF = experiment: MIC susceptibility profiling, efflux platform; details: for Fold change of MICs: EKO-35 araC::mdtEF compared to EKO-35
Outline: as §1

[2] = test system: EKO-35 araC::mexCD (MexCD from P. aeruginosa); experiment: MIC susceptibility profiling, efflux platform; details: for Fold change of MICs: EKO-35 araC::mexCD compared to EKO-35
Outline: as §1

wild-type (WT) K-12-Pore = experiment: microbe, parasite or virus in culture; details: technical duplicate; for MIC: Escherichia coli
Outline: (§2)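 MIC values come from background-corrected OD600 readings (pre-incubation OD subtracted) after 18 h at 37 °C and 900 rpm in MHB II. Compounds were tested in duplicate as 2-fold dilutions. The inoculum came from 18 h LB cultures adjusted to OD600 ~1.0 and diluted 1/2000, and the pore-bearing strains were vancomycin-checked beforehand.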

ΔtolC-Pore = experiment: microbe, parasite or virus in culture; details: for Minimum inhibitory concentration (MIC), Pore ΔtolC: Table 10, with pore
Outline: as §2

EKO-35 araC::acrEF Pore = experiment: MIC susceptibility profiling, porinated efflux platform; details: for Fold changes of MICs: EKO-35 araC::acrEF Pore compared to EKO-35-Pore
Outline: as §2

EKO-35 araC::emrKY Pore = experiment: as above; details: for Fold changes of MICs: EKO-35 araC::emrKY Pore compared to EKO-35-Pore
Outline: as §2

EKO-35 araC::macAB Pore = experiment: as above; details: for Fold changes of MICs: EKO-35 araC::macAB Pore compared to EKO-35-Pore
Outline: as §2

EKO-35 araC::mdtEF Pore = experiment: as above; details: for Fold changes of MICs: EKO-35 araC::mdtEF Pore compared to EKO-35-Pore
Outline: as §2

[3] = Table 13A, non-porinated, technical duplicate
[4] = Table 13B, non-porinated, technical duplicate
[5] = Table 14A, porinated, technical duplicate

## O=C(Nc1ccccc1)Nc1ccc(Br)c(C(F)(F)F)c1 [compound 6]
E. coli EKO-35
  Fold change of MICs: 1 fold
E. coli EKO-35; Table 10, without pore, technical duplicate
  Minimum inhibitory concentration (MIC), EKO-35: 320 µg/mL
E. coli EKO-35; [3]
  Minimum Inhibitory Concentration, EKO-35: 320 µg/mL
E. coli ΔtolC; technical duplicate
  Minimum inhibitory concentration (MIC), ΔtolC: 0.625 µg/mL
E. coli ΔtolC; [3]
  Minimum Inhibitory Concentration, ΔtolC: 0.625 µg/mL
[1]; Table 10, without pore
  Minimum inhibitory concentration (MIC), K-12: 320 µg/mL
[1]; Table 13A, non-porinated
  Minimum Inhibitory Concentration, K-12: 320 µg/mL
EKO-35 araC::acrBD408A
  Fold change of MICs: 1 fold
EKO-35 araC::acrBD408A; [4]
  Minimum Inhibitory Concentration, EKO-35 araC::acrBD408A: 320 µg/mL
EKO-35 araC::acrB
  Fold change of MICs: 1 fold
EKO-35 araC::acrB; [3]
  Minimum Inhibitory Concentration, EKO-35 araC::acrB: 320 µg/mL
EKO-35 araC::acrD
  Fold change of MICs: 1 fold
EKO-35 araC::acrD; [3]
  Minimum Inhibitory Concentration, EKO-35 araC::acrD: 320 µg/mL
EKO-35 araC::acrEF
  Fold change of MICs: 1 fold
EKO-35 araC::acrEF; [3]
  Minimum Inhibitory Concentration, EKO-35 araC::acrEF: 320 µg/mL
EKO-35 araC::emrAB
  Fold change of MICs: 1 fold
EKO-35 araC::emrAB; [4]
  Minimum Inhibitory Concentration, EKO-35 araC::emrAB: 320 µg/mL
EKO-35 araC::emrKY
  Fold change of MICs: 1 fold
EKO-35 araC::emrKY; [4]
  Minimum Inhibitory Concentration, EKO-35 araC::emrKY: 320 µg/mL
EKO-35 araC::macAB
  Fold change of MICs: 1 fold
EKO-35 araC::macAB; [4]
  Minimum Inhibitory Concentration, EKO-35 araC::macAB: 320 µg/mL
EKO-35 araC::mdtBC
  Fold change of MICs: 1 fold
EKO-35 araC::mdtBC; [4]
  Minimum Inhibitory Concentration, EKO-35 araC::mdtBC: 320 µg/mL
EKO-35 araC::mdtEF
  Fold change of MICs: 1 fold
EKO-35 araC::mdtEF; [3]
  Minimum Inhibitory Concentration, EKO-35 araC::mdtEF: 320 µg/mL
[2]
  Fold change of MICs: 1 fold
[2]; [4]
  Minimum Inhibitory Concentration, EKO-35 araC::mexCD: 320 µg/mL
wild-type (WT) K-12-Pore; Table 10, with pore
  Minimum inhibitory concentration (MIC), Pore K-12: 320 µg/mL
wild-type (WT) K-12-Pore; Table 14A, porinated
  Minimum inhibitory concentration, K-12 (WT)-Pore: 320 µg/mL
ΔtolC-Pore; technical duplicate
  Minimum inhibitory concentration (MIC), Pore ΔtolC: 0.625 µg/mL
ΔtolC-Pore; [5]
  Minimum inhibitory concentration, ΔtolC-Pore: 0.625 µg/mL
EKO-35 araC::acrEF Pore
  Fold changes of MICs: 1 fold
EKO-35 araC::acrEF Pore; [5]
  Minimum inhibitory concentration, EKO-35 araC::acrEF Pore: 320 µg/mL
EKO-35 araC::emrKY Pore
  Fold changes of MICs: 1 fold
EKO-35 araC::emrKY Pore; EKO-35 araC::emrKY Pore, technical duplicate
  Minimum inhibitory concentration: 320 µg/mL
EKO-35 araC::macAB Pore
  Fold changes of MICs: 1 fold
EKO-35 araC::macAB Pore; EKO-35 araC::macAB Pore, technical duplicate
  Minimum inhibitory concentration: 320 µg/mL
EKO-35 araC::mdtEF Pore
  Fold changes of MICs: 1 fold
EKO-35 araC::mdtEF Pore; [5]
  Minimum inhibitory concentration, EKO-35 araC::mdtEF Pore: 320 µg/mL

## COc1cccc2c1C(=O)c1c(O)c3c(c(O)c1C2=O)C[C@@](O)(C(C)=O)C[C@@H]3O[C@H]1C[C@H](N)[C@H](O)[C@H](C)O1 [daunorubicin]
E. coli EKO-35
  Fold change of MICs: 1 fold
E. coli EKO-35; Table 10, without pore, technical duplicate, read-out: Minimum inhibitory concentration (MIC), EKO-35
  MIC: 3.12 µg/mL
E. coli EKO-35; Table 13A, non-porinated, technical duplicate, read-out: Minimum Inhibitory Concentration, EKO-35
  MIC: 3.12 µg/mL
E. coli ΔtolC; Escherichia coli, 18 h, read-out: Minimum Inhibitory Concentration, ΔtolC
  MIC: 1.56 µg/mL
E. coli ΔtolC; technical duplicate
  Minimum inhibitory concentration (MIC), ΔtolC: 1.563 µg/mL
[1]; Table 10, without pore, read-out: Minimum inhibitory concentration (MIC), K-12
  MIC: 200 µg/mL
[1]; Table 13A, non-porinated, read-out: Minimum Inhibitory Concentration, K-12
  MIC: 200 µg/mL
EKO-35 araC::acrBD408A
  Fold change of MICs: 1 fold
EKO-35 araC::acrBD408A; Escherichia coli, Table 13B, non-porinated, technical duplicate, read-out: Minimum Inhibitory Concentration, EKO-35 araC::acrBD408A
  MIC: 3.12 µg/mL
EKO-35 araC::acrB
  Fold change of MICs: 64 fold
EKO-35 araC::acrB; Escherichia coli, Table 13A, non-porinated, technical duplicate, read-out: Minimum Inhibitory Concentration, EKO-35 araC::acrB
  MIC: 200 µg/mL
EKO-35 araC::acrD
  Fold change of MICs: 2 fold
EKO-35 araC::acrD; Escherichia coli, Table 13A, non-porinated, technical duplicate, read-out: Minimum Inhibitory Concentration, EKO-35 araC::acrD
  MIC: 6.25 µg/mL
EKO-35 araC::acrEF
  Fold change of MICs: 64 fold
EKO-35 araC::acrEF; Escherichia coli, Table 13A, non-porinated, technical duplicate, read-out: Minimum Inhibitory Concentration, EKO-35 araC::acrEF
  MIC: 200 µg/mL
EKO-35 araC::emrAB
  Fold change of MICs: 1 fold
EKO-35 araC::emrAB; Escherichia coli, Table 13B, non-porinated, technical duplicate, read-out: Minimum Inhibitory Concentration, EKO-35 araC::emrAB
  MIC: 3.12 µg/mL
EKO-35 araC::emrKY
  Fold change of MICs: 1 fold
EKO-35 araC::emrKY; Escherichia coli, Table 13B, non-porinated, technical duplicate, read-out: Minimum Inhibitory Concentration, EKO-35 araC::emrKY
  MIC: 3.12 µg/mL
EKO-35 araC::macAB
  Fold change of MICs: 2 fold
EKO-35 araC::macAB; Escherichia coli, Table 13B, non-porinated, technical duplicate, read-out: Minimum Inhibitory Concentration, EKO-35 araC::macAB
  MIC: 6.25 µg/mL
EKO-35 araC::mdtBC
  Fold change of MICs: 1 fold
EKO-35 araC::mdtBC; Escherichia coli, Table 13B, non-porinated, technical duplicate, read-out: Minimum Inhibitory Concentration, EKO-35 araC::mdtBC
  MIC: 1.56 µg/mL
EKO-35 araC::mdtEF
  Fold change of MICs: 64 fold
EKO-35 araC::mdtEF; Escherichia coli, Table 13A, non-porinated, technical duplicate, read-out: Minimum Inhibitory Concentration, EKO-35 araC::mdtEF
  MIC: 200 µg/mL
[2]
  Fold change of MICs: 32 fold
[2]; Table 13B, non-porinated, technical duplicate, read-out: Minimum Inhibitory Concentration, EKO-35 araC::mexCD
  MIC: 100 µg/mL
wild-type (WT) K-12-Pore; Table 10, with pore, read-out: Minimum inhibitory concentration (MIC), Pore K-12
  MIC: 100 µg/mL
wild-type (WT) K-12-Pore; Table 14A, porinated, read-out: Minimum inhibitory concentration, K-12 (WT)-Pore
  MIC: 100 µg/mL
ΔtolC-Pore; Escherichia coli, 18 h, read-out: Minimum inhibitory concentration, ΔtolC-Pore
  MIC: 0.781 µg/mL
ΔtolC-Pore; technical duplicate
  Minimum inhibitory concentration (MIC), Pore ΔtolC: 0.781 µg/mL
EKO-35 araC::acrEF Pore
  Fold changes of MICs: 32 fold
EKO-35 araC::acrEF Pore; Escherichia coli, Table 14A, porinated, technical duplicate, read-out: Minimum inhibitory concentration, EKO-35 araC::acrEF Pore
  MIC: 25 µg/mL
EKO-35 araC::emrKY Pore
  Fold changes of MICs: 1 fold
EKO-35 araC::emrKY Pore; Escherichia coli, EKO-35 araC::emrKY Pore, technical duplicate, read-out: Minimum inhibitory concentration
  MIC: 0.781 µg/mL
EKO-35 araC::macAB Pore
  Fold changes of MICs: 2 fold
EKO-35 araC::macAB Pore; Escherichia coli, EKO-35 araC::macAB Pore, technical duplicate, read-out: Minimum inhibitory concentration
  MIC: 1.56 µg/mL
EKO-35 araC::mdtEF Pore
  Fold changes of MICs: 64 fold
EKO-35 araC::mdtEF Pore; Escherichia coli, Table 14A, porinated, technical duplicate, read-out: Minimum inhibitory concentration, EKO-35 araC::mdtEF Pore
  MIC: 50 µg/mL
